# Values joined by “and” are separate entries in the source; they are usually repeats but may differ in a detail not shown here. Identical values can stand only once.
# Test system: S. typhi GFP reporter counter-screen, fluorescence, 4 h
# Test: S. typhi counter-screen signal inhibition – fluorescence, 4 h, counter-screen for PhoP regulon inhibitor project, dose response (AID 2384)
row,Structure (SMILES),IC50
1,CS(=O)(=O)c1ccc2nc(NC(=O)c3ccc(Cl)nc3)sc2c1,27.8 µM
2,C#CCOCCOCCOCCNc1nc(N2CCN(C(=O)[C@H](Cc3ccc(O)cc3)n3cc([C@@H](N)CC(C)C)nn3)CC2)nc(N2CCN(C(=O)[C@H](Cc3ccc(O)cc3)n3cc([C@@H](N)CC(C)C)nn3)CC2)n1,80 µM
3,Nc1[nH]ncc1-c1ccccc1,48 µM
4,CN(C)c1nnnn1-c1ccc(Oc2ccccc2)cc1,0.27 µM
5,Cc1ccc(Nc2nc(NCCO)c3ccccc3n2)cc1C,34 µM
6,O=C(CN1C2=NCCCN2c2ccccc21)c1ccc(Br)s1,40.2 µM
7,C#CCOCCOCCOCCNc1nc(N2CCN(C(=O)CCCCCCCCCCNC(=O)Cn3cc(CCCCCN)nn3)CC2)nc(N2CCN(C(=O)CCCCCCCCCCNC(=O)[C@H]([C@@H](C)CC)n3cc(CCCCCN)nn3)CC2)n1,38.8 µM
8,Cc1ccc(C(=O)Sc2cccccc2=O)cc1,6.31 µM
9,S=C(Nc1cc(Cl)cc(Cl)c1)NC1CCN(Cc2ccccc2)CC1,82 µM
10,Nc1c(Cl)ncnc1N/N=C/c1ccccn1,32.9 µM
11,O=C(O)c1ccc(N2C(=O)CC(N3C(=O)/C(=C/c4ccc(Cl)cc4)SC3=S)C2=O)cc1 (stereo unspecified),23.7 µM
12,O=c1[nH]cc(F)c(=O)[nH]1,2.53 µM
13,CCOC(=O)N/N=C(/C)c1ccc([N+](=O)[O-])o1,73.6 µM
14,O=[N+]([O-])c1ccc(O)c(/C=N/Nc2ccccn2)c1,9.31 µM
15,CCCCCCCCCCCCCCCC[n+]1cccc(C(=O)N(CC)CC)c1,18.3 µM
16,C=CCOc1ccc(Cl)cc1CNC1CCCC1,102 µM
17,CCOc1ccc(/C=N/NC(=O)c2[nH]ncc2Br)c(O)c1,43.7 µM
18,Fc1ccc([C@@H]2CCNC[C@H]2COc2ccc3c(c2)OCO3)cc1,19.2 µM
19,OC(CNCCc1ccc(C(F)(F)F)cc1)COC(c1ccccc1)c1ccccc1 (stereo unspecified),29.6 µM
20,CN1CCN(c2c(F)cc3c(=O)c(C(=O)O)cn4c3c2SCC4)CC1,6.28 µM and 8.88 µM
21,COc1ccccc1Nc1c2ccccc2nc2ccccc12,99.9 µM
22,CN1CCN(CC(=O)N2CCn3c4c(c5cc(C6CCCCC6)ccc53)CCCC42)CC1 (stereo unspecified),36.9 µM
23,Clc1ccc(OCCCN2CCCC2)cc1Cl,28.3 µM
24,CCCCCCCCCC[N+](C)(C)CC/C=C1/c2ccccc2Sc2ccc(Cl)cc21,14 µM

row,Structure (SMILES),IC50
1,Cc1cc(CSC(=N)N)c(CSC(=N)N)cc1C,50.1 µM
2,CC(NCC(O)COCCC12CC3CC(CC(C3)C1)C2)c1ccccc1 (stereo unspecified),23.1 µM
3,O=CN/N=C/c1c(O)ccc2ccccc12,33.1 µM
4,Oc1ccc(/C=N/N=C(c2ccccc2)c2ccccc2)c(O)c1O,33.6 µM
5,Cc1cccc2c1Sc1ccc(Cl)cc1CC2N1CCNCC1 (stereo unspecified),71.8 µM
6,O=C(CN1C2=NCCCN2c2ccccc21)c1ccc2c(c1)OCO2,126 µM
7,CN(C)CCCN(C(=O)CCc1ccccc1)c1nc2ccc(Br)cc2s1,32.8 µM
8,CCCCCOc1ccc(CSC2=NCCN2)cc1[N+](=O)[O-],32 µM
9,OCCN1CCN(CCCN2c3ccccc3Sc3ccc(C(F)(F)F)cc32)CC1,75.1 µM
10,CN1CCC(OC(=O)c2ccc(Br)cc2)CC1,18.2 µM
11,CCOC(=O)c1c(-c2ccc(-c3ccccc3)cc2)csc1NC(=O)CNCCN(C)C,82.7 µM
12,CN(C)CC/C=C1/c2ccccc2Sc2ccc(Cl)cc21,30.1 µM
13,Cc1ccc(NC2=NCCCS2)cc1Cl,126 µM
14,CN1CCC(OC(=O)c2ccc(Cl)cc2Cl)CC1,36.8 µM
15,O=C1C(=O)c2ccccc2-c2ccccc21,19.4 µM
16,C#CCOCCOCCOCCNc1nc(N2CCN(C(=O)[C@H]([C@@H](C)CC)n3cc([C@@H](N)CO)nn3)CC2)nc(N2CCN(C(=O)[C@H](Cc3cc4ccccc4[nH]3)n3cc([C@@H](N)Cc4ccc(O)cc4)nn3)CC2)n1,49.7 µM
17,CC(C(=O)NC1C=CS(=O)(=O)C1)N1C(=O)/C(=C/c2ccc(Cl)cc2)SC1=S (stereo unspecified),30.3 µM
18,CN1CCc2nc(SCC(=O)Nc3ccc(Cl)cc3)c(C#N)cc2C1,93.5 µM
19,O=C(OCC(=O)N1CCOCC1)c1ccc[nH]c1=O,10.9 µM
20,CC1(C)N=C(N)N=C(N)N1c1ccc(Oc2ccc(Cl)cc2)c(Cl)c1,36.3 µM
21,CC1CCN(CCOCCOc2ccc(Br)cc2Cl)CC1,97.8 µM
22,CCCCc1ccc(N/C(N)=N/c2nc(C)cc(C)n2)cc1,52.3 µM
23,Cc1cc(C)nc(/N=C(\N)Nc2ccc(SC(F)F)cc2)n1,51.3 µM
24,Cc1oc2c(O)c(O)ccc2c(=O)c1-c1ccccc1,100 µM

row,Structure (SMILES),IC50
1,CNCCCC1c2ccccc2C=Cc2ccccc21,67.1 µM
2,CC(C)C1N=C(c2ccc3c(c2)OCO3)CC(c2ccccc2O)N1 (stereo unspecified),117 µM
3,Cc1ccc2nc(/C(C#N)=C\c3ccc([N+](=O)[O-])o3)[nH]c2c1,95.9 µM
4,CCc1ccc(NC(=O)C[n+]2cc(-c3ccc(C)cc3)n3c2CCC3)cc1,37.2 µM
5,CCOC(=O)C1=C(O)c2ccccc2C(=O)/C1=C\c1ccc(C)cc1,137 µM
6,CSc1ccc2c(c1)N(CCC1CCCCN1C)c1ccccc1S2 (stereo unspecified),37.2 µM
7,C(=N/Nc1nccs1)/c1cccnc1,49.5 µM
8,NC(=O)SCC(=O)Nc1cccc(Cl)c1,60.9 µM
9,Oc1[nH]c2ccccc2c1N=NC(=S)N1CCOCC1,21.2 µM
10,O=C(N/N=C/c1c(O)ccc2ccccc12)c1ccc(CO)nc1,81.7 µM
11,C1=C(CCNCc2ccccc2)CCCC1,16.8 µM
12,CCn1cc(C(=O)NCC(C)C)c(=O)c2cc(F)c(N3CCN(C)CC3)cc21,64.4 µM
13,CC[C@H]1OC(=O)[C@H](C)[C@@H](O[C@H]2C[C@@](C)(OC)[C@@H](O)[C@H](C)O2)[C@H](C)[C@@H](O[C@@H]2O[C@H](C)C[C@H](N(C)C)[C@H]2O)[C@](C)(O)C[C@@H](C)[C@@H]2N[C@@H](COCCOC)O[C@H]([C@H]2C)[C@]1(C)O,5.52 µM
14,c1ccc2c(c1)OC(CCCN1CCCCC1)c1ccccc1S2 (stereo unspecified),76.4 µM
15,O=C(NC(=S)NNC(=O)c1ccccc1O)c1ccco1,25.8 µM
16,NC1=NC[C@@H](Cc2ccc(O)cc2)N1CCCCC1CCCCC1,14.8 µM
17,Cc1ccc2c(c1)C1CN(C)CCC1N2C(=O)COc1ccccc1F (stereo unspecified),110 µM
18,Nc1cc(Cl)c2nonc2c1[N+](=O)[O-],32.6 µM
19,CN1CCN(c2nc3cc(C(F)(F)F)ccc3n3cccc23)CC1,42.4 µM
20,O=C(N/N=C/C1CC=CCC1)c1cc(Br)ccc1O (stereo unspecified),123 µM
21,Cc1c(CN(C)C)c2c(n1Cc1ccccc1)C(=O)c1ccc(Br)cc1-2,47.2 µM
22,Cc1cc(OCCCCCN2CCCC2)ccc1Cl,51 µM
23,N/C(=N\OS(=O)(=O)c1ccccc1)c1cccnc1,12.4 µM
24,O=Nc1c(O)c2ccccc2c2ccccc12,37.7 µM

row,Structure (SMILES),IC50
1,Fc1ccc(CCNCc2ccccc2Cl)cc1,83.2 µM
2,Nc1ncncc1-c1ccc(Cl)cc1,65.5 µM
3,CNC[C@@H](Cc1ccccc1)NC[C@@H](CC1CCCCC1)NCCCc1ccccc1,19.8 µM
4,O=C(N/N=C/c1cc(Cl)cc(Cl)c1O)c1ccncc1,33.7 µM
5,Nc1c2ccccc2nc2ccccc12,39.5 µM
6,O=Nc1ccc(O)c2ncccc12,20 µM
7,O=C(N/N=C/c1cc([N+](=O)[O-])ccc1O)C(O)(c1ccccc1)c1ccccc1,54.9 µM
8,Cc1ccc(-c2csc(NC(=O)C[n+]3cc(-c4ccccc4)n4c3CCC4)n2)cc1,19.3 µM
9,Oc1ccc(C[C@@H]2CNCCN2CCC23CC4CC(CC(C4)C2)C3)cc1,40.6 µM
10,CCOC(=O)N1CCN(CCC(=O)c2ccc(Br)cc2)CC1,82.3 µM
11,Nc1nonc1-n1nnc(C(=O)N/N=C/c2ccccc2O)c1CN1CCCC1,112 µM
12,O=C(Cc1cccs1)N/N=C\c1ccc([N+](=O)[O-])s1,50.9 µM
13,CN1CCN(C2=Cc3ccccc3Sc3cc(F)c(F)cc32)CC1,37.3 µM
14,COc1cc(/C=N/NC(=O)c2cncc(Br)c2)cc([N+](=O)[O-])c1O,19.1 µM
15,CC1(C)N=C(N)NC(Nc2ccc(Br)cc2)=N1,109 µM
16,Cc1cc(NC2CCCCC2)nc(NCc2ccccc2)n1,36.1 µM
17,COc1ccc(OCc2n(CC(=O)OC3CC(C)CCC3C(C)C)c3ccccc3[n+]2C)cc1 (stereo unspecified),36.6 µM
18,CCOC(=O)c1c(N)sc(C(=O)Nc2ccc3c(c2)OCO3)c1C,132 µM
19,COc1cc(CNC2CCCC2)cc(Cl)c1OCc1ccccc1Cl,38 µM
20,CCOc1cccc(CNCCc2c(C)[nH]c3ccc(OC(F)(F)F)cc23)c1O,31.2 µM
21,O=C(Cn1cc[n+](CC(=O)c2ccc(Cl)cc2Cl)c1)c1ccc(Cl)cc1Cl,27.6 µM
22,Cc1ccc(O)c(Nc2c3ccccc3nc3ccccc23)c1,50.2 µM
23,Oc1ccc(N=Nc2ccc(Br)cc2)c(O)c1,100 µM
24,CCN(CCC(=O)Nc1ccc(Br)c(C)c1)Cc1ccccc1,37.9 µM

row,Structure (SMILES),IC50
1,O=C(O)c1cccc(N2C(=O)CSC2=S)c1,68 µM
2,Oc1c(C(Nc2ccccn2)c2cccnc2)cc(Cl)c2cccnc12 (stereo unspecified),25.5 µM
3,COc1ccc(/C=N/Nc2cc(C)nc3ccc(Br)cc23)cc1,36.4 µM
4,Cc1cccn2c(=O)c(C=O)c(Cl)nc12,145 µM
5,NCCCC[C@H]1CN=C(N)N1CCC12CC3CC(CC(C3)C1)C2,86.4 µM
6,O=C(NC(=S)NNC(=O)c1cnccn1)c1ccc(F)cc1,24.4 µM
7,COC(=O)N/N=C/c1c[n+]([O-])c2ccccc2[n+]1[O-],92.1 µM
8,Cc1ccc(NNS(=O)(=O)c2ccc(C)cc2)cc1,111 µM
9,c1ccc(CN2CCC(Nc3nc(-c4cccs4)nc4ccccc34)CC2)cc1,37.2 µM
10,Clc1ccc(C[n+]2cc(-c3ccc(Cl)cc3)n3c2CCC3)cc1,37.7 µM
11,CC(C)(C)c1ccc(OCCCCCCN2CCNCC2)cc1,49.2 µM
12,CCCCCc1ccc(OCCC[n+]2ccccc2)c(CCCCC)c1,32.9 µM
13,CN1CCN(c2ccc(NC(=O)c3ccc(-c4ccc(Br)cc4)o3)cc2)CC1,19.6 µM
14,NC1=NC[C@H](Cc2ccc(O)cc2)N1CCc1cccc2ccccc12,36.5 µM
15,CN(C)CCCN1c2ccccc2Sc2ccccc21,40.1 µM
16,O=C(N/N=C/c1cc(Cl)cc([N+](=O)[O-])c1O)C1CC1,98 µM
17,Cc1cc(N=Nc2ccc(C)c(N=Nc3cc(C)c(N)cc3N)c2)c(N)cc1N,57.6 µM
18,COc1c(N2CCN(C(=S)Nc3ccc(F)cc3)C(C)C2)c(F)cc2c(=O)c(C(=O)O)cn(C3CC3)c12 (stereo unspecified),18.3 µM
19,COC(=O)C1C(O)C(C)C(O)C(C)(O)/C=C\C=C(/C)C(=O)Nc2c(C)c(OC(C)=O)c3c(c2O)C(=O)C(C)=C2OCOC(=C23)/C(C)=C/C(C)(O)C(O)C(C)C1O (stereo unspecified),23.9 µM
20,CCCCCCCCCCOC(=O)Cn1c(COc2ccc(OC)cc2)[n+](C)c2ccccc21,12.1 µM and 10 µM

# Reference: PubChem BioAssay AID2384 (Southern Research Specialized Biocontainment Screening …, 2010)
